Measured values taken from patent publication US20220162192A1 (ESCAPE Bio, Inc., priority 2019, published 2022).

Legend:
[1] = target: T1, Recombinant G2019S-LRRK2 protein (Homo sapiens, UniProt Q5S007, G2019S); experiment: LanthaScreen Kinase Activity Assay (TR-FRET), G2019S-LRRK2; format: biochemical; details: class symbols; 25 μM ATP, 400 nM LRRKtide, 2.9 nM kinase, 60 min at room temperature
T1 construct: purchased Life Technologies PV4881
Protocol: (§1) LRRK2 kinase activity was measured using a LanthaScreen™ Kinase Activity Assay from ThermoFisher Scientific. Recombinant wild type or G2019S-LRRK2 protein (Life Technologies, PR8604B or PV4881, respectively), was incubated with a fluorescein-labeled peptide substrate called LRRKtide that is based upon ezrin/radixin/moesin (ERM) (Life Technologies, PV4901) in the presence of ATP and serially diluted compound. After an incubation period of 1 hr, the phosphotransferase activity was stopped and a terbium-labelled anti-pERM antibody (Life Technologies, PV4899) was added to detect the phosphorylation of LRRKtide by measuring the time resolved-Forster resonant energy transfer (TR-FRET) signal from the terbium label on the antibody to the fluorescein tag on LRRKtide, expressed as the 520 nm/495 nm emission ratio. Compound-dependent inhibition of the TR-FRET signal was used to generate a concentration-response curve for IC50 determination.
(§2) The assay was carried out under the following protocol conditions: 1 mM compound in DMSO was serially diluted 1:3, 11 points in DMSO with a Biomek FX and 0.1 μL of the diluted compound was subsequently stamped into the assay plate (384-well format Lumitrac 200, Greiner, 781075) with an Echo Labcyte such that the final compound concentration in the assay was 10 μM to […]. Subsequently, 5 μL of 2× kinase solution (2.9 nM final concentration) was added to the assay plate in assay buffer composed of 50 mM Tris pH 8.5 (Sigma, T6791), 5 mM MgCl2 (Fluka, 63020), 1 mM EGTA (Sigma, E3889), 0.01% BRIJ-35 (Sigma, P1254) and 2 mM DTT. The reaction was started by addition of 2×ATP/LRRKtide solution in assay buffer such that the final concentration was 400 nM LRRKtide and 25 μM ATP. After 60 min incubation at room temperature, the reaction was stopped by addition of […] containing a final concentration of 2 nM anti-pERM antibody and 10 mM EDTA. After a 30 min incubation at RT, the TR-FRET signal was measured on a Wallac 2104 EnVision® multilabel reader at an excitation wavelength of 340 nm and reading emission at 520 nm and 495 nm. The ratio of the 520 nm and 495 nm emission was used to analyze the data.

[2] = target: T2, Recombinant wild type LRRK2 protein (Homo sapiens, UniProt Q5S007); experiment: LanthaScreen Kinase Activity Assay (TR-FRET), wild type LRRK2; format: biochemical; details: class symbols; 25 μM ATP, 400 nM LRRKtide, 2.9 nM kinase, 60 min at room temperature; read-out: LRRK2 WT IC50
T2 construct: purchased Life Technologies PR8604B
Protocol: as §1, §2

T1 sequence (Q5S007 whole entry G2019S): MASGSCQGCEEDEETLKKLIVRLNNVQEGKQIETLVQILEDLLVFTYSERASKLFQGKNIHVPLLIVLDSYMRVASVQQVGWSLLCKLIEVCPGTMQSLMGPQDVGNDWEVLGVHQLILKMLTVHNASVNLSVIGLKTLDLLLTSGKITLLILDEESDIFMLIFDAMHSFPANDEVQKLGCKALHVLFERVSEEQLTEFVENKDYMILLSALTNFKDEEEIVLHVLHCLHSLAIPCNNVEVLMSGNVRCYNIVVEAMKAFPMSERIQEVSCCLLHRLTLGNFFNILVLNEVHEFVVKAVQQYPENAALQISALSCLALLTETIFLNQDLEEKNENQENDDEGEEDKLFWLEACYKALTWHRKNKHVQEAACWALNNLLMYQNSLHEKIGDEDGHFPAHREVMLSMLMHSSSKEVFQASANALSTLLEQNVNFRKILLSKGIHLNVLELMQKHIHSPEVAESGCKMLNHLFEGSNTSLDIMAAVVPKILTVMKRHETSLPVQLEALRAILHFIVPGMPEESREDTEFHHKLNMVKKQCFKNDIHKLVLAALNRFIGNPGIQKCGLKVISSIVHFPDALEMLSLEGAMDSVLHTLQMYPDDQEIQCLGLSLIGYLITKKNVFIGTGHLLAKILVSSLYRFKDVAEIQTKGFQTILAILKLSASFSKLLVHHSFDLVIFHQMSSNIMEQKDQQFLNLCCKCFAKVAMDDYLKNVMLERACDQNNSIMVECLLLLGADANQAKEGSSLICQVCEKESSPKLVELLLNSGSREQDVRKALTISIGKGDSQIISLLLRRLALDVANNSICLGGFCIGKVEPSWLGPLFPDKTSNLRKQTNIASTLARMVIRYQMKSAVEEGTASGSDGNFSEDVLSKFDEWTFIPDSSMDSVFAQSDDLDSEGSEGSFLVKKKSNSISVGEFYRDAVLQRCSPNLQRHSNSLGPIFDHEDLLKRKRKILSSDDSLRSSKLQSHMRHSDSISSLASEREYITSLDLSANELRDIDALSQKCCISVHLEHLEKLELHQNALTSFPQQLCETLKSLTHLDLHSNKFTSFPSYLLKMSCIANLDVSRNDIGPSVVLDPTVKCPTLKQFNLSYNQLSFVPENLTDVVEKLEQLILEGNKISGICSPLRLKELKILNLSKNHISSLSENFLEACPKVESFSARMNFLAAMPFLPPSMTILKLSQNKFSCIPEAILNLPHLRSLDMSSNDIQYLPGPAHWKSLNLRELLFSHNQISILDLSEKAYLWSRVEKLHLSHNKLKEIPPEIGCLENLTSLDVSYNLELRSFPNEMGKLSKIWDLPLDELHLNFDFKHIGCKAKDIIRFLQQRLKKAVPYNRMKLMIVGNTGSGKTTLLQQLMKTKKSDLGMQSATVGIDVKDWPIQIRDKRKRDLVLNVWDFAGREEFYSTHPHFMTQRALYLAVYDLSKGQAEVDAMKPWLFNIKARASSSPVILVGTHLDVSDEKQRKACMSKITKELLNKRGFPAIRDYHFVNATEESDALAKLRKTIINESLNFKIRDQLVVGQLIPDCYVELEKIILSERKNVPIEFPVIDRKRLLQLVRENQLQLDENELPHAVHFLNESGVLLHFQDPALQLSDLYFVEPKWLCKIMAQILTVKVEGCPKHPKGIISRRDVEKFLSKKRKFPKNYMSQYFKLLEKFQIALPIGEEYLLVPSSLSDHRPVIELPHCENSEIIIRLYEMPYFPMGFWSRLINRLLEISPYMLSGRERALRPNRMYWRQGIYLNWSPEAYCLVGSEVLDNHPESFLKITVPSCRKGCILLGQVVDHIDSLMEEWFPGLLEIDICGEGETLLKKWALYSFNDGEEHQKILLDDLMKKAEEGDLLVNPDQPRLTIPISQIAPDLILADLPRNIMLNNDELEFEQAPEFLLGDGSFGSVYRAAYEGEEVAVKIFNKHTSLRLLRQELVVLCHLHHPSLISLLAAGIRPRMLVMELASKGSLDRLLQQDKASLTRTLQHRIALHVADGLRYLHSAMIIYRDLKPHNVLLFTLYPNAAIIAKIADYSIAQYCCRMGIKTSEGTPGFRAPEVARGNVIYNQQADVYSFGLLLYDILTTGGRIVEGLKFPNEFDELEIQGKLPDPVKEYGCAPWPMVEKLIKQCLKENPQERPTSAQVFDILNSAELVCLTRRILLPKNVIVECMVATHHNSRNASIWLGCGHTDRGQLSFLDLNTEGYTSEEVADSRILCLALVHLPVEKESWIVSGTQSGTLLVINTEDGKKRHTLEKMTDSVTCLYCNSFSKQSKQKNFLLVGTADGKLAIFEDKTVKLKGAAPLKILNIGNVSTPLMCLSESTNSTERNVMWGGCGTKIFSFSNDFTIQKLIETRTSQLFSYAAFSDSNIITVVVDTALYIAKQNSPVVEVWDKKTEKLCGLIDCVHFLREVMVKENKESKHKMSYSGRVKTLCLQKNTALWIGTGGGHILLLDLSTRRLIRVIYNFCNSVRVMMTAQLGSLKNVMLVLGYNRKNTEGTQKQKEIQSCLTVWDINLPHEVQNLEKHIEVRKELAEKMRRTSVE
T2 sequence (Q5S007 whole entry): as the sequence (Q5S007 whole entry G2019S) above, with S2019G counted along it

Compound	IC50 [1] [nM]	IC50 [2] [nM]
Cc1n[nH]c2ccc(NC(=O)c3ccc4nnc(C)n4c3)cc12 [Example 8, 3-Methyl-N-(3-methyl-1H-indazol-5-yl)-[1,2,4]triazolo[4,3-a]pyridine-6-carboxamide]	1000 to 10000	1000 to 10000
O=C(Nc1ccc2[nH]nc(-c3ccoc3)c2c1)c1cnc2ccnn2c1 [Example 130, N-(3-(Furan-3-yl)-1H-indazol-5-yl)pyrazolo[1,5-a]pyrimidine-6-carboxamide]	100 to 1000	100 to 1000
O=C(Nc1ccc2[nH]nc(-c3ccoc3)c2c1)c1cn2cccnc2n1 [Example 128, N-(3-(Furan-3-yl)-1H-indazol-5-yl)imidazo[1,2-a]pyrimidine-2-carboxamide]	100 to 1000	100 to 1000
Cc1cc2cnnn2c(C)c1C(=O)Nc1ccc2[nH]nc(-c3ccoc3)c2c1 [Example 150, N-(3-(Furan-3-yl)-1H-indazol-5-yl)-5,7-dimethyl-[1,2,3]triazolo[1,5-a]pyridine-6-carboxamide]	≤ 100	≤ 100
Cc1cn2cnnc2c(C)c1C(=O)Nc1ccc2[nH]nc(C)c2c1 [Example 58, 6,8-Dimethyl-N-(3-methyl-1H-indazol-5-yl)-[1,2,4]triazolo[4,3-a]pyridine-7-carboxamide]	100 to 1000	1000 to 10000
Cc1c(C(=O)Nc2ccc3[nH]nc(-c4ccccc4)c3c2)ccn2nncc12 [Example 149, 4-Methyl-N-(3-phenyl-1H-indazol-5-yl)-[1,2,3]triazolo[1,5-a]pyridine-5-carboxamide]	≤ 100	≤ 100
Cn1ncc2c(F)c(C(=O)Nc3ccc4[nH]nc(-c5cocn5)c4c3)c(F)cc21 [Example 136, 4,6-Difluoro-1-methyl-N-(3-(oxazol-4-yl)-1H-indazol-5-yl)-1H-indazole-5-carboxamide]	≤ 100	100 to 1000
Cc1c(C(=O)Nc2ccc3[nH]nc(-c4cnco4)c3c2)ncc2c1cnn2C [Example 169, 1,4-Dimethyl-N-(3-(oxazol-5-yl)-1H-indazol-5-yl)-1H-pyrazolo[3,4-c]pyridine-5-carboxamide]	≤ 100	100 to 1000
Cc1cc2cncn2c(C)c1C(=O)Nc1ccc2[nH]nc(-c3ccccc3)c2c1 [Example 69, 5,7-Dimethyl-N-(3-phenyl-1H-indazol-5-yl)imidazo[1,5-a]pyridine-6-carboxamide]	≤ 100	≤ 100
O=C(Nc1ccc2[nH]nc(-c3ccoc3)c2c1)c1ccc2nsnc2c1 [Example 120, N-(3-(Furan-3-yl)-1H-indazol-5-yl)benzo[c][1,2,5]thiadiazole-5-carboxamide]	≤ 100	100 to 1000
Cn1ncc2c(F)c(C(=O)Nc3ccc4[nH]nc(C5CCOC5)c4c3)c(F)cc21 (centres unmarked) [Example 104, 4,6-Difluoro-1-methyl-N-(3-(tetrahydrofuran-3-yl)-1H-indazol-5-yl)-1H-indazole-5-carboxamide]	100 to 1000	1000 to 10000
O=C(Nc1ccc2[nH]nc(-c3ccoc3)c2c1)C1CCc2nncn2C1 (single isomer, unassigned) [Example 162a]	≤ 100	≤ 100
Cc1cc2cncn2cc1C(=O)Nc1ccc2[nH]nc(C)c2c1 [Example 145, 7-Methyl-N-(3-methyl-1H-indazol-5-yl)imidazo[1,5-a]pyridine-6-carboxamide]	≤ 100	100 to 1000
CCCc1n[nH]c2ccc(NC(=O)c3c(F)cc4c(cnn4C)c3F)cc12 [Example 99, 4,6-Difluoro-1-methyl-N-(3-propyl-1H-indazol-5-yl)-1H-indazole-5-carboxamide]	≤ 100	100 to 1000
O=C(Nc1ccc2[nH]nc(-c3ccoc3)c2c1)c1ccc2scnc2c1 [Example 124, N-(3-(Furan-3-yl)-1H-indazol-5-yl)benzo[d]thiazole-5-carboxamide]	100 to 1000	100 to 1000
Cc1n[nH]c2ccc(NC(=O)c3ccn4cnnc4c3)cc12 [Example 5, N-(3-Methyl-1H-indazol-5-yl)-[1,2,4]triazolo[4,3-a]pyridine-7-carboxamide]	1000 to 10000	1000 to 10000
Cn1ncc2c(F)c(C(=O)Nc3ccc4[nH]nc(-c5ccno5)c4c3)c(F)cc21 [Example 137, 4,6-Difluoro-N-(3-(isoxazol-5-yl)-1H-indazol-5-yl)-1-methyl-1H-indazole-5-carboxamide]	≤ 100	≤ 100

Other lines, results leading:

IC50 [1] [nM]	IC50 [2] [nM]	Compound
≤ 100	≤ 100	CN(C)c1ccc(-c2n[nH]c3ccc(NC(=O)c4c(F)cc5c(cnn5C)c4F)cc23)cc1 [Example 87, N-(3-(4-(Dimethylamino)phenyl)-1H-indazol-5-yl)-4,6-difluoro-1-methyl-1H-indazole-5-carboxamide]
≤ 100	1000 to 10000	Cc1cc2nn[nH]c2cc1C(=O)Nc1ccc2[nH]nc(Br)c2c1 [Example 15, N-(3-Bromo-1H-indazol-5-yl)-5-methyl-1H-benzo[d][1,2,3]triazole-6-carboxamide]
≤ 100	100 to 1000	Cc1cc2cnnn2c(C)c1C(=O)Nc1ccc2[nH]nc(-c3ccccc3F)c2c1 [Example 44, N-(3-(2-Fluorophenyl)-1H-indazol-5-yl)-5,7-dimethyl-[1,2,3]triazolo[1,5-a]pyridine-6-carboxamide]
≤ 100	100 to 1000	Cn1ncc2c(F)c(C(=O)Nc3ccc4[nH]nc(NCc5ccccc5)c4c3)c(F)cc21 [Example 110, N-(3-(Benzylamino)-1H-indazol-5-yl)-4,6-difluoro-1-methyl-1H-indazole-5-carboxamide]
≤ 100	100 to 1000	Cn1ncc2c(F)c(C(=O)Nc3ccc4[nH]nc(C#N)c4c3)c(F)cc21 [Example 105, N-(3-Cyano-1H-indazol-5-yl)-4,6-difluoro-1-methyl-1H-indazole-5-carboxamide]
≤ 100	≤ 100	Cc1cc2nncn2c(C)c1C(=O)Nc1ccc2[nH]nc(-c3ccoc3)c2c1 [Example 153, N-(3-(Furan-3-yl)-1H-indazol-5-yl)-5,7-dimethyl-[1,2,4]triazolo[4,3-a]pyridine-6-carboxamide]
≤ 100	≤ 100	O=C(Nc1ccc2[nH]nc(-c3ccoc3)c2c1)c1ccc2snnc2c1 [Example 121, N-(3-(Furan-3-yl)-1H-indazol-5-yl)benzo[d][1,2,3]thiadiazole-5-carboxamide]
≤ 100	100 to 1000	Cc1cc2[nH]cnc2cc1C(=O)Nc1ccc2[nH]nc(-c3ccccc3)c2c1 [Example 19, 6-Methyl-N-(3-phenyl-1H-indazol-5-yl)-1H-benzo[d]imidazole-5-carboxamide]
≤ 100	100 to 1000	Cc1cc2[nH]ccc2cc1C(=O)Nc1ccc2[nH]nc(-c3ccccc3)c2c1 [Example 20, 6-Methyl-N-(3-phenyl-1H-indazol-5-yl)-1H-indole-5-carboxamide]
≤ 100	≤ 100	Cc1nc2cncn2c(C)c1C(=O)Nc1ccc2[nH]nc(I)c2c1 [Example 111, N-(3-Iodo-1H-indazol-5-yl)-2,4-dimethylimidazo[1,5-a]pyrimidine-3-carboxamide]
≤ 100	≤ 100	Cn1cc2cc(C(=O)Nc3ccc4[nH]nc(-c5cnco5)c4c3)ncc2n1 [Example 159, 2-Methyl-N-(3-(oxazol-5-yl)-1H-indazol-5-yl)-2H-pyrazolo[3,4-c]pyridine-5-carboxamide]
≤ 100	≤ 100	O=C(Nc1ccc2[nH]nc(-c3ccccc3)c2c1)c1cc2[nH]ncc2cc1Br [Example 24, 5-Bromo-N-(3-phenyl-1H-indazol-5-yl)-1H-indazole-6-carboxamide]
≤ 100	≤ 100	Cn1cc(-c2n[nH]c3ccc(NC(=O)c4c(F)cc5c(cnn5C)c4F)cc23)cn1 [Example 35, 4,6-Difluoro-1-methyl-N-(3-(1-methyl-1H-pyrazol-4-yl)-1H-indazol-5-yl)-1H-indazole-5-carboxamide]
≤ 100	100 to 1000	COc1ccccc1-c1n[nH]c2ccc(NC(=O)c3c(C)cc4cnnn4c3C)cc12 [Example 46, N-(3-(2-Methoxyphenyl)-1H-indazol-5-yl)-5,7-dimethyl-[1,2,3]triazolo[1,5-a]pyridine-6-carboxamide]
